Paper PMC11575396, “Activity and cryo-EM structure of the polymerase domain of the human norovirus ProPol precursor” (Journal of Virology, 2024)
Structures can show the parent of a compound that is named as a salt. Where two headings read alike, the source gives them in different places. Marks after values point to notes of the source that are not given here.

Experiments:
GII Pol [1] = target: T1, GII Pol (Norovirus Hu/GII.4/Sydney/NSW0514/2012/AU, UniProt K4L8Z7); assay: Steady-state kinetics of de novo polymerase activity (PicoGreen); assay type: biochemical, Human norovirus GII.4 Sydney 2012; conditions: (95% CI)
Description: (§1) De novo polymerase activity was measured by monitoring the formation of dsRNA from a single-stranded homopolymeric RNA template using PicoGreen as described previously ([69]). Optimal pH (range of 7.0–8.0), concentrations of MnCl2 (2.5 mM), and DTT (5 mM) for HuNV were previously established ([17], [52]). Concentrations of NaCl in the final polymerase reaction were maintained below 10 mM ([17]).
(§2) Standard reactions were performed in 25 µL, containing 5 mM DTT, 2.5 mM MnCl2, 20 ng/µL RNA template, 0.5 mM NTP in 20 mM Tris pH 7.5. Reactions were initiated with the indicated concentration of enzyme and allowed to proceed for a set period at 37°C before being terminated with 10 mM EDTA. PicoGreen (1:350 dilution) (Invitrogen, Waltham, MA, USA) was added to bind the dsRNA, and fluorescence was measured on a Varioskan Flash (Thermo Fisher Scientific, Waltham, MA, USA) plate reader with excitation at 480 nm and emission at 520 nm.
(§3) Kinetics of nucleotide incorporation by polymerase proteins was analyzed by titrating NTP concentration under standard reaction conditions for the linear time period of the enzyme. Kinetics of RNA template utilization was analyzed in the same manner but with titration of the homopolymeric template. The velocity of the reaction against substrate concentration was plotted, and the kinetic parameters were determined by non-linear regression using the Michaelis-Menten model in GraphPad Prism version 9.2.0 (La Jolla, CA, USA). All enzyme kinetics was performed with three independent preparations of protein, with triplicate wells for each replicate.

GII ProPol [2] = target: T2, GII ProPol (Norovirus Hu/GII.4/Sydney/NSW0514/2012/AU, UniProt K4L8Z7, E1189A); assay: as above; assay type: biochemical, Human norovirus GII.4 Sydney 2012
GI Pol [3] = target: T3, GI Pol (Southampton virus, UniProt Q04544); assay: as above; assay type: biochemical, Human norovirus GI Southampton; conditions: GI Pol 75 nM, (95% CI)
Description: as §1, §2, §3

GI ProPol [4] = target: T4, GI ProPol (Southampton virus, UniProt Q04544, E1280A); assay: as above; assay type: biochemical, Human norovirus GI Southampton; conditions: GI ProPol 250 nM, (95% CI)
Description: as §1, §2, §3

GII ProPol [5] = target: T2, GII ProPol; assay: as above; assay type: biochemical, Human norovirus GII.4 Sydney 2012; conditions: (95% CI)
Description: as §1, §2, §3

GII ProPol [6] = target: T2, GII ProPol; assay: biochemical; design: species or system Human norovirus GII.4 Sydney 2012
GII Pol [7] = target: T1, GII Pol; assay: biochemical; conditions: for IC50: read-out: IC50 polymerase activity
GII ProPol [8] = target: T2, GII ProPol; assay: FRET protease assay; assay type: biochemical, Human norovirus GII.4 Sydney 2012
From the text: (§4) A fluorescent resonance energy transfer assay was used to measure the activities of Pro and ProPol as described in reference ([46]). The peptide substrate, 5(6)-carboxyfluorescein (FAM)-[…]-Dabcyl utilized in reactions, was based on the NS1-2/NS3 cleavage site of HuNV GII.4 Sydney 2012, and the scissile bond is shown in bold.

GII Pro = assay: FRET protease assay; assay type: biochemical, Human norovirus GII.4 Sydney 2012; conditions: normalized to 0-µM inhibitor control
From the text: as §4

GI Pol [9] = target: T3, GI Pol; assay: De novo polymerase inhibition assay (PicoGreen dsRNA formation); assay type: biochemical
norovirus Pro = test system: norovirus Pro; design: method as in PMID 32321856, PMID 38005879; conditions: read-out: IC50 protease activity; cited from earlier work
GI ProPol [10] = target: T4, GI ProPol; assay: De novo polymerase inhibition assay (PicoGreen dsRNA formation); assay type: biochemical, Human norovirus GI Southampton
GII Pol [11] = test system: GII Pol; design: method as in PMID 24316032, PMID 31804593, PMID 30584800; conditions: read-out: IC50 polymerase; cited from earlier work
[12] = GII ProPol 1 µM, ATP 0 to 2000 µM, 80 ng/µL poly(U), (95% CI)
[13] = GTP 0 to 1,000 µM, 20 ng/µL poly(C)
[14] = 0, 3 and 30 µM, poly(C) template
[15] = GII ProPol 2 µM, poly(A) 0 to 400 ng/µL, 0.5 mM UTP, 60 min
[16] = poly(C) 0 to 80 ng/µL, 0.5 mM GTP
[17] = GII Pol 35 nM, poly(C) 0 to 80 ng/µL, 0.5 mM GTP
[18] = GII ProPol 35 nM, poly(C) 0 to 80 ng/µL, 0.5 mM GTP
[19] = GII Pol 2 µM, poly(U) 0 to 160 ng/µL, 0.5 mM ATP, 20 min

**Q.** Which results are given for `Nc1ncnc2c1ncn2[C@@H]1O[C@H](COP(=O)(O)OP(=O)(O)OP(=O)(O)O)[C@@H](O)[C@H]1O` [ATP]?
**A.** kcat ATP (GII Pol [1]; GII Pol 2 µM, ATP 0 to 2000 µM, 80 ng/µL poly(U)): 0.3 (0.2–0.33) s^−1; Km (GII Pol [1]; GII Pol 2 µM, ATP 0 to 2000 µM, 80 ng/µL poly(U), read-out: Km ATP): 416 µM; Km (GII ProPol [2]; [12]): 484 µM; kcat ATP (GII ProPol [2]; [12]): 0.6 (0.5–0.7) s^−1

**Q.** Which results are given for `Nc1nc2c(ncn2[C@@H]2O[C@H](COP(=O)(O)OP(=O)(O)OP(=O)(O)O)[C@@H](O)[C@H]2O)c(=O)[nH]1` [GTP]?
**A.** Km (GI Pol [3]; [13]): 150 µM; kcat GTP (GI Pol [3]; [13]): 1.7 (1.47–1.96) s^−1; Km (GI ProPol [4]; [13]): 91.5 µM; kcat GTP (GI ProPol [4]; [13]): 0.24 s⁻¹; kcat GTP (GII Pol [1]; GII Pol 35 nM, GTP 0 to 500 µM, 20 ng/µL poly(C)): 1.6 (1.40–1.96) s^−1; Km (GII Pol [1]; GII Pol 35 nM, GTP 0 to 500 µM, 20 ng/µL poly(C), read-out: Km GTP): 80.3 µM; kcat GTP (GII ProPol [5]; GII ProPol 35 nM, GTP 0 to 500 µM, 20 ng/µL poly(C)): 0.78 (0.69–0.87) s^−1; Km (GII ProPol [5]; GII ProPol 35 nM, GTP 0 to 500 µM, 20 ng/µL poly(C), read-out: Km GTP): 25.3 µM

**Q.** Which IC50 (GII ProPol [6]) does the source give for `Nc1ncnc2c([C@@H]3N[C@H](COP(=O)(O)OP(=O)(O)OP(=O)(O)O)[C@@H](O)[C@H]3O)c[nH]c12` [Gal-TP, galidesivir triphosphate] here?
**A.** The IC50 was 247 µM.

**Q.** And the “fold difference between the IC50 values (GII ProPol vs GII Pol)” value (GII ProPol [6]; poly(U) template)?
**A.** Its value is 1.6 fold.

**Q.** And the IC50 (GII Pol [7]; GII Pol 2 µM, 8 ng/µL poly(U) template, 400 µM ATP)?
**A.** Its IC50 is 154 µM.

**Q.** What about the “protease activity in the presence of inhibitor” value (“protease activity … of inhibitor” below) (GII ProPol [8]; 30 µM inhibitor) of the same compound?
**A.** Its value is “observable decrease in ProPol activity”.

**Q.** And the “protease activity … of inhibitor” value (GII ProPol [8]; normalized to 0-µM inhibitor control)?
**A.** The value was “did not affect protease activity to a level of significance”.

**Q.** What about the “protease activity … of inhibitor” value (GII Pro) of the same compound?
**A.** Its value is “did not affect protease activity to a level of significance”.

**Q.** With `O=C(Nc1cccc(C(=O)Nc2ccc(S(=O)(=O)O)c3cc(S(=O)(=O)O)cc(S(=O)(=O)O)c23)c1)Nc1cccc(C(=O)Nc2ccc(S(=O)(=O)O)c3cc(S(=O)(=O)O)cc(S(=O)(=O)O)c23)c1` [NF023, 8,8′-[carbonylbis(imino-3,1-phenylenecarbonylimino)]bis-1,3,5-naphthalene-trisulphonic acid] as the compound, how does the “protease activity … of inhibitor” value (GII Pro) read?
**A.** Its value is “not affected”.

**Q.** For `O=C[C@H](C[C@@H]1CCNC1=O)NC(=O)[C@H](CC1CCCCC1)NC(=O)c1cc2ccccc2[nH]1` [NV-004], which “polymerase activity in the presence of inhibitor” value (GI Pol [9]; [14]) is on record?
**A.** Its value is “no decrease in polymerase activity”.

**Q.** And the remaining activity at 30 µM (GII ProPol [6]; read-out: polymerase activity compared with 0-µM control)?
**A.** Its remaining activity at 30 µM is 76%.

**Q.** What about the “polymerase activity in the presence of inhibitor” value (GII Pol [7]; [14]) of the same compound?
**A.** The value was “no decrease in polymerase activity”.

**Q.** And the IC50 (norovirus Pro)?
**A.** Its IC50 is 0.37 µM.

**Q.** With `Cc1nc(/N=N/c2cc(S(=O)(=O)O)c3cc([N+](=O)[O-])cc(S(=O)(=O)O)c3c2)c(COP(=O)(O)O)c(C=O)c1O` [PPNDS, pyridoxal‐5′‐phosphate‐6‐(2′‐naphthylazo‐6′‐nitro‐4′,8′‐disulfonate) tetrasodium salt] as the compound, how does the IC50 (GI ProPol [10]) read?
**A.** The IC50 was 6.8 µM.

**Q.** And the IC50 (GI Pol [9]; GI Pol 75 nM, 6 ng/µL poly(C) template, 150 µM GTP)?
**A.** Its IC50 is 3.4 µM.

**Q.** What about the IC50 (GII ProPol [6]) of the same compound?
**A.** Its IC50 is 3.8 µM.

**Q.** And the IC50 (GII Pol [7])?
**A.** Its IC50 is 0.5 µM.

**Q.** And the IC50 (GII Pol [11])?
**A.** The IC50 was 0.45 to 1.5 µM.

**Q.** For `O=c1ccn([C@@H]2O[C@H](COP(=O)(O)OP(=O)(O)OP(=O)(O)O)[C@@H](O)[C@H]2O)c(=O)[nH]1` [UTP], which “kcat UTP” value (GII ProPol [5]; GII ProPol 2 µM, nucleotide 0 to 2000 µM, 20 ng/µL poly(A), 60 min) is on record?
**A.** Its value is 0.36 (0.32–0.41) s^−1.

**Q.** And the Km (GII ProPol [5]; GII ProPol 2 µM, nucleotide 0 to 2000 µM, 20 ng/µL poly(A), 60 min, read-out: Km UTP)?
**A.** Its Km is 438 µM.

**Q.** For poly(A), which “Km poly(A)” value (GII ProPol [5]; [15]) is on record?
**A.** Its value is 23.6 (19.0–29.3)^a ng/μL.

**Q.** What about the “kcat poly(A)” value (GII ProPol [5]; [15]) of the same compound?
**A.** Its value is 0.42 (0.39–0.45) s^−1.

**Q.** Which results are given for poly(C)?
**A.** Km poly(C) (GI Pol [3]; [16]): 6.5 (5.2–8.0) ng/μL; kcat poly(C) (GI Pol [3]; [16]): 1.4 (1.3–1.6) s^−1; Km poly(C) (GI ProPol [4]; poly(C) 0 to 80 ng/µL, 0.5 mM GTP, 10 min 37°C): 15.6 (12.0–20.2)^a ng/μL; kcat poly(C) (GI ProPol [4]; [16]): 0.4 (0.35–0.42) s^−1; Km poly(C) (GII Pol [1]; [17]): 8.8 (6.9–11.3) ng/μL; kcat poly(C) (GII Pol [1]; [17]): 1.4 (1.3–1.5) s^−1; Km poly(C) (GII ProPol [5]; [18]): 5.9 (4.7–7.3) ng/μL; kcat poly(C) (GII ProPol [5]; [18]): 1.1 (1.0–1.2) s^−1

**Q.** For poly(U), which “Km poly(U)” value (GII Pol [1]; [19]) is on record?
**A.** Its value is 29.6 (19.7–45.0) ng/μL.

**Q.** And the “kcat poly(U)” value (GII Pol [1]; [19])?
**A.** Its value is 1.4 (1.2–1.7) s^−1.

**Q.** And the “kcat poly(U)” value (GII ProPol [5]; GII ProPol 1 µM, poly(U) 0 to 160 ng/µL, 0.5 mM ATP, 20 min)?
**A.** Its value is 1.9 (1.6–2.2) s^−1.

**Q.** And the “Km poly(U)” value (GII ProPol [5]; GII ProPol 1 µM, poly(U) 0 to 160 ng/µL, 0.5 mM ATP, 20 min, Michaelis-Menten)?
**A.** The value was 7.9 (4.7–13.2)^a ng/μL.

**Q.** What about the “Km as estimated by half Vmax” value (GII ProPol [2]; GII ProPol with poly(U), allosteric sigmoidal model) of the same compound?
**A.** Its value is 6.8 ng/µL.
